PubChem BioAssay (NCI)
Values joined by “and” are separate entries in the source; they are usually repeats but may differ in a detail not shown here. Identical values can stand only once.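 Cultured in 96-well plates, cells were exposed to test compound for 48 hours across five concentrations. Here, GI50 denotes the concentration required for 50% inhibition of growth. The concentration for full growth arrest is given as TGI.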 Where a SMILES comes first, the peptide text is derived from it. [ ]: non-standard residue; d: D form. The star is where a group is joined. Bn2Val = CC(C)[C@@H](C(=O)*)N(Cc1ccccc1)Cc1ccccc1; NH(3,4-diMeO-benzyl) = COc1ccc(CN*)cc1OC; NMeV = CN[C@H](C(=O)O)C(C)C; dNMeA = CN[C@H](C)C(=O)O

Tests used:
Experiment in all cases: inhibition of tumour cell growth, NCI panel, 48 h
IGROV1 ovarian = tested on: IGROV1 ovarian
CAKI-1 renal = tested on: CAKI-1 renal
HOP-62 NSCLC = tested on: HOP-62 NSCLC
OVCAR-3 ovarian = tested on: OVCAR-3 ovarian
SK-MEL-28 melanoma = tested on: SK-MEL-28 melanoma
HCT-116 colon = tested on: HCT-116 colon
OVCAR-5 ovarian = tested on: OVCAR-5 ovarian
SK-MEL-2 melanoma = tested on: SK-MEL-2 melanoma
UACC-257 melanoma = tested on: UACC-257 melanoma
SNB-75 CNS = tested on: SNB-75 CNS

| Compound | TGI (IGROV1 ovarian) | TGI (CAKI-1 renal) | TGI (HOP-62 NSCLC) | TGI (OVCAR-3 ovarian) | TGI (SK-MEL-28 melanoma) | TGI (HCT-116 colon) | TGI (OVCAR-5 ovarian) | TGI (SK-MEL-2 melanoma) | TGI (UACC-257 melanoma) | TGI (SNB-75 CNS) | GI50 (IGROV1 ovarian) | GI50 (CAKI-1 renal) | GI50 (HOP-62 NSCLC) | GI50 (OVCAR-3 ovarian) | GI50 (SK-MEL-28 melanoma) | GI50 (HCT-116 colon) | GI50 (OVCAR-5 ovarian) | GI50 (SK-MEL-2 melanoma) | GI50 (UACC-257 melanoma) | GI50 (SNB-75 CNS) |
| --- | --- | --- | --- | --- | --- | --- | --- | --- | --- | --- | --- | --- | --- | --- | --- | --- | --- | --- | --- | --- |
| C[C@]12CCC(=O)C=C1CC[C@@H]1C2CC[C@]2(C)NC(=O)C(C#N)CC12 (stereo not given in full) | > 100 µM | > 100 µM | > 100 µM | > 100 µM | > 100 µM | > 100 µM | > 100 µM | > 100 µM | > 100 µM | > 100 µM |  |  |  |  |  |  |  |  |  |  |
| O=C(O/N=C1/CCC/C1=C\c1ccccc1)c1ccc([N+](=O)[O-])cc1 | > 100 µM | > 100 µM | > 100 µM | > 100 µM | > 100 µM | > 100 µM | > 100 µM | > 100 µM | > 100 µM | 91.3 µM |  |  |  |  |  |  |  |  |  |  |
| C1CN2N3CCCC23C1 (stereo not given) | > 100 µM | > 100 µM | > 100 µM | > 100 µM | > 100 µM | > 100 µM | > 100 µM | > 100 µM | > 100 µM | > 100 µM |  |  |  |  |  |  |  |  |  |  |
| COc1cc2c(c(O)c1C)C(=O)C(Cl)=CC2=O | 40.2 µM | 11.6 µM | > 69.2 µM | 24.3 µM | 35.1 µM | 22.6 µM | 44.3 µM | 31.2 µM | 18.7 µM | 31.5 µM |  |  |  |  |  |  |  |  |  |  |
| COc1ccc(CN2CCCC(C(=O)c3ccc(C(F)(F)F)cc3)C2)c(O)c1 (stereo not given) | > 100 µM | > 100 µM | > 100 µM | > 100 µM | 43.9 µM | > 100 µM | 66.1 µM | 65.8 µM | 74.4 µM | > 100 µM | 52.6 µM | 22.1 µM | 29.1 µM | 36.2 µM | 17.1 µM | 21.2 µM | 20.2 µM | 27.5 µM | 24.2 µM | 18.4 µM |
| COc1cc([C@@H]2c3cc4c(cc3[C@@H](NC(=O)c3cccc([N+](=O)[O-])c3)C3COC(=O)[C@@H]32)OCO4)cc(OC)c1O (stereo not given in full) | > 37.4 µM | 4.31 µM | 0.121 µM | 27.9 µM | > 43.8 µM | > 34.8 µM | 8.54 µM | 7.23 µM | > 100 µM | 9.55 µM |  |  |  |  |  |  |  |  |  |  |
| CC[n+]1ccc2c(c1)C(=O)c1nccc3c1c-2nc1ccccc13 | 10.9 µM | > 33.3 µM | 1.19 µM | 2.92 µM | 7.64 µM | 7.18 µM | 19.4 µM | 6.08 µM | 9.06 µM | 2.56 µM | 1.76 µM | 2.1 µM | 0.0618 µM | 0.783 µM | 1.84 µM | 1.1 µM | 6.88 µM | 1.35 µM | 3.42 µM | 0.678 µM |
| c1ccc(-c2nnc(-c3nn(-c4ccccc4)c4nc5ccccc5nc34)o2)cc1 | > 100 µM | > 100 µM | > 100 µM | > 100 µM | > 100 µM | > 100 µM | > 100 µM | > 100 µM | > 100 µM | > 100 µM |  |  |  |  |  |  |  |  |  |  |
| O=C1c2ccccc2C(=O)c2c1ccc1[nH]c(CCl)nc21 | 6.59 µM | 9.89 µM | 9.42 µM | 3.03 µM | 18.8 µM | 4.7 µM | 24.5 µM | 12.2 µM | 15.1 µM | 10.8 µM | 2.03 µM | 2.61 µM | 3.12 µM | 1.64 µM | 6.58 µM | 1.85 µM | 10.2 µM | 3.26 µM | 4.23 µM | 1.56 µM |
| CC1(C)N=C(N)N=C(N)N1c1ccc(CCCCc2ccc(S(=O)(=O)F)cc2Cl)c(Cl)c1 | 106 µM | 128 µM | 47.2 µM | 87 µM | 13.4 µM | 140 µM | 198 µM | 20.3 µM | 64 µM | 54.7 µM |  |  |  |  |  |  |  |  |  |  |
| COc1ccc(CNC(=O)[C@@H](C)N(C)C(=O)[C@@H]2CCCN2C(=O)[C@H](C(C)C)N(C)C(=O)[C@@H](NC(=O)[C@H](C(C)C)N(Cc2ccccc2)Cc2ccccc2)C(C)C)cc1OC (Bn2Val-V[NMeV]P[dNMeA]-{NH(3,4-diMeO-benzyl)}) | 13.6 µM and 28.3 µM | 47 µM and 30.5 µM | 16.5 µM and 33.4 µM | 14.6 µM and 24.7 µM | 17.6 µM and 28.3 µM | 14.4 µM and 17.7 µM | 16.6 µM and 9.77 µM | 15.1 µM and 15 µM | 21.8 µM and 23.5 µM | 16.6 µM and 15.9 µM | 11.1 µM | 12.7 µM | 14.7 µM | 10 µM | 13.5 µM | 4.87 µM | 2.79 µM | 4.38 µM | 10.2 µM | 3.54 µM |
| O=C(O)c1cc(S(=O)(=O)N=NC=C2c3ccccc3N(O)c3ccccc32)ccc1O | 83.1 µM | > 100 µM | 37.5 µM | > 100 µM | 30.9 µM | 27.9 µM | > 100 µM | 64.2 µM | 88.2 µM | 7.77 µM |  |  |  |  |  |  |  |  |  |  |
